Blank lines part the entries; values can stand above or below the compound they belong to.
Columns and labels:
[1] = molecular target: BTK (Homo sapiens, UniProt Q06187); experiment: Western blotting for BTK in Mino cells; type: cell-based; details: 24 h; for BTK degradation in Mino cells: Western blotting
[2] = system: Jeko-1 cells; experiment: Alarma Blue cell viability assay, Jeko-1; type: cell-based
[3] = system: Mino cells; experiment: cells; type: cell-based; details: Homo sapiens, read-out: Mino IC50
[4] = system: Rec-R cells; experiment: Alarma Blue cell viability assay, Rec-R; type: cell-based
[5] = molecular target: IKZF1-nLuc (Homo sapiens, UniProt Q13422+Q96SW2); details: other cell line
IKZF1-nLuc, sequence (Q13422 whole entry): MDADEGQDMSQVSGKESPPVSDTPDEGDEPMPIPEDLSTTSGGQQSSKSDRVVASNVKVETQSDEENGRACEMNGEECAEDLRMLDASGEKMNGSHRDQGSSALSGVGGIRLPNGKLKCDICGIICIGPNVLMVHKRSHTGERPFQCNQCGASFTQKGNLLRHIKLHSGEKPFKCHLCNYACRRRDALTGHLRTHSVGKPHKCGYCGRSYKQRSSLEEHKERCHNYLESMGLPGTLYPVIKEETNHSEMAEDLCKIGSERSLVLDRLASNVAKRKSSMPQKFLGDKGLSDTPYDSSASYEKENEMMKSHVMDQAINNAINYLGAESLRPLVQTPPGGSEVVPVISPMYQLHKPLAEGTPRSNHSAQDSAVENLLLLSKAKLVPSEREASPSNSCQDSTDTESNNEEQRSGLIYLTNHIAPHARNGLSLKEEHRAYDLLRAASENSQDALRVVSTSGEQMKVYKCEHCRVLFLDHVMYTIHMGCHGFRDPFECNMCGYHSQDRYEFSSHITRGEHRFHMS
IKZF1-nLuc, sequence (Q96SW2 whole entry): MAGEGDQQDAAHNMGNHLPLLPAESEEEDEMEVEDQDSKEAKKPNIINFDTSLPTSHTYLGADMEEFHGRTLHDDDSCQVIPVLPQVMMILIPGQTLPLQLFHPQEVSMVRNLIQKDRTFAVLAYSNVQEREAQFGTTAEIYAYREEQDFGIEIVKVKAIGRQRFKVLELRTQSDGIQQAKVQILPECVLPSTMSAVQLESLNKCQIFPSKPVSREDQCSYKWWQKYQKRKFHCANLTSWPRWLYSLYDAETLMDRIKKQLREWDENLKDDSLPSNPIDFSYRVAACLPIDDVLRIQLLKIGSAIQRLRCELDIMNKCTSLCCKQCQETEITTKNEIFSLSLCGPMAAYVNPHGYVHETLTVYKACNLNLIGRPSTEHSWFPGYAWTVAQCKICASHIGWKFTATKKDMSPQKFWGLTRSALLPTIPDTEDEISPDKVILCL
IKZF1-nLuc, sequence (Q16531 whole entry partner): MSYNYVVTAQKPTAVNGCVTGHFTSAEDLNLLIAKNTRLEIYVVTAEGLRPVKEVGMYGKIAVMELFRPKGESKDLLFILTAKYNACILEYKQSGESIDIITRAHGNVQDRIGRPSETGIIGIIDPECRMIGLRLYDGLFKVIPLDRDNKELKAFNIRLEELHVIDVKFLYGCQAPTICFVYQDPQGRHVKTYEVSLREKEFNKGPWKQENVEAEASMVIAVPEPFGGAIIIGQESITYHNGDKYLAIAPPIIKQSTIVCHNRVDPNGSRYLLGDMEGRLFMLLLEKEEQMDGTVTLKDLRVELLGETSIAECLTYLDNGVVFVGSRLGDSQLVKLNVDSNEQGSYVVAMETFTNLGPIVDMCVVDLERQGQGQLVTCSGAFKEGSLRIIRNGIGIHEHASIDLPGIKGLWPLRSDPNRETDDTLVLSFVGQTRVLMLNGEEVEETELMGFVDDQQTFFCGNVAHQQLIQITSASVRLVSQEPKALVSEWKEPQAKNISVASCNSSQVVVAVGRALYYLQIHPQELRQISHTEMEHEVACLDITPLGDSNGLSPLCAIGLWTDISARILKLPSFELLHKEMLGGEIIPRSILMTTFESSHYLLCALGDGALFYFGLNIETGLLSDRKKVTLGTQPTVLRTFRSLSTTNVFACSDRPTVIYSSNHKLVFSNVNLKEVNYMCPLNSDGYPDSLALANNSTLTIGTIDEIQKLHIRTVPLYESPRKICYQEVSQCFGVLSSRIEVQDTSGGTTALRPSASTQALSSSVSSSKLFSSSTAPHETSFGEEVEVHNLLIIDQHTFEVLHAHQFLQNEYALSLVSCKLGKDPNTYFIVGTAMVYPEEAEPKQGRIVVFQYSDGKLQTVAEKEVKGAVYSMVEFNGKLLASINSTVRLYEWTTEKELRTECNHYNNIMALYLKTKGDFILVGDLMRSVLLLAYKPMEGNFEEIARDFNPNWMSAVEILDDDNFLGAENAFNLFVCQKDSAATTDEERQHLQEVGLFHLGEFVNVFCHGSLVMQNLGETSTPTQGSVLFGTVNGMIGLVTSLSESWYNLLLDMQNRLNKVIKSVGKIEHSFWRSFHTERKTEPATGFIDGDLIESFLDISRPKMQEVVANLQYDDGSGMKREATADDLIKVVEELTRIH

[6] = molecular target: T1, IKZF3-nLuc (Homo sapiens, UniProt Q96SW2+Q9UKT9); details: other cell line
T1 sequence (Q9UKT9 whole entry): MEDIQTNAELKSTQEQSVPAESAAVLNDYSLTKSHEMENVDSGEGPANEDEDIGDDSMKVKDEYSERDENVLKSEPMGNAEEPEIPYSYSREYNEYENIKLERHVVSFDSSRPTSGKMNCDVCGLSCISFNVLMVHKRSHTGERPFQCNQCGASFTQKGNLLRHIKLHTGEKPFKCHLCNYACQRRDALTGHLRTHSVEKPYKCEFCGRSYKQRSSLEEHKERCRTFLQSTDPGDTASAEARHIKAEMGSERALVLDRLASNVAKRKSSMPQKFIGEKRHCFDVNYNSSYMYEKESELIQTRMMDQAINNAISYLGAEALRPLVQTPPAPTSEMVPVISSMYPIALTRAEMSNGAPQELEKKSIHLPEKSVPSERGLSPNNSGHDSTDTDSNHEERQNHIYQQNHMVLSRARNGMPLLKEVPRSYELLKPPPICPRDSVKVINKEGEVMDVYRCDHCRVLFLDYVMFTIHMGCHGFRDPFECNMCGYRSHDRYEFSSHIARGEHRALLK
T1 sequence (Q96SW2 whole entry): as the sequence (Q96SW2 whole entry) above
T1 sequence (Q16531 whole entry partner): as the sequence (Q16531 whole entry partner) above

[7] = system: MOLM14 cells; experiment: Alarma Blue cell viability assay, MOLM14; type: cell-based; details: Homo sapiens, MOLM-14, 72 h, read-out: MOLM14 IC50
[8] = molecular target: His-BTK (Homo sapiens, UniProt Q06187); experiment: TR-FRET competition binding assay with BTK-BODIPY tracer; details: 2 h incubation, 150 nM tracer, 2 nM His-BTK
His-BTK, sequence (Q06187 whole entry, the tested form may be a part): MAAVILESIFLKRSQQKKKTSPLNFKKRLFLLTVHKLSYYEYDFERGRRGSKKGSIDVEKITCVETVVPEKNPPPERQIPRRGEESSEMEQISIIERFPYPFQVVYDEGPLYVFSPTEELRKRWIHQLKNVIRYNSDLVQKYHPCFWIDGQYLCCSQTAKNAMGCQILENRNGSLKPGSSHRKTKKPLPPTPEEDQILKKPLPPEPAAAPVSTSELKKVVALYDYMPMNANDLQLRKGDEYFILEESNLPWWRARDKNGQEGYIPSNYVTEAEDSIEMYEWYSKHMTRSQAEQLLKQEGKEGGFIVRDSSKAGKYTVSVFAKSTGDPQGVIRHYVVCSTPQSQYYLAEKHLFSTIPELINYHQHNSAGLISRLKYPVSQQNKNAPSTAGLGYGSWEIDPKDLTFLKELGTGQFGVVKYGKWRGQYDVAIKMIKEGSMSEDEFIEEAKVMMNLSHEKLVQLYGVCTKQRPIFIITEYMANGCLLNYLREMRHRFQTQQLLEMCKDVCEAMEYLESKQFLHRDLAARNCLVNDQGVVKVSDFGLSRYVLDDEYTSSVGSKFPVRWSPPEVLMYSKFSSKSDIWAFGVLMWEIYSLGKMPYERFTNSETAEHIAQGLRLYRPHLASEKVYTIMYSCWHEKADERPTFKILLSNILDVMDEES

[9] = molecular target: BTK-nLuc fusion protein (Homo sapiens, UniProt Q06187+Q96SW2); experiment: BTK-nLuc endpoint degradation assay; type: cell-based; details: HEK-293T cells stably expressing BTK-nLuc, 24 h
BTK-nLuc fusion protein, sequence (Q06187 whole entry, the tested form may be a part): as above
BTK-nLuc fusion protein, sequence (Q96SW2 whole entry, the tested form may be a part): as the sequence (Q96SW2 whole entry) above
BTK-nLuc fusion protein, sequence (Q16531 whole entry partner, the tested form may be a part): as the sequence (Q16531 whole entry partner) above

[10] = molecular target: IKZF1 (Homo sapiens, UniProt Q13422+Q96SW2); experiment: Western blotting for IKZF1 in Mino cells; type: cell-based; details: at 200 nM; assay not given
IKZF1, sequence (Q13422 whole entry): as the sequence (Q13422 whole entry) above
IKZF1, sequence (Q96SW2 whole entry): as the sequence (Q96SW2 whole entry) above
IKZF1, sequence (Q16531 whole entry partner): as the sequence (Q16531 whole entry partner) above

[11] = molecular target: IKZF3 (Homo sapiens, UniProt Q96SW2+Q9UKT9); experiment: Western blotting for IKZF3 in Mino cells; type: cell-based; details: at 40 nM; assay not given
IKZF3, sequence (Q9UKT9 whole entry): as the sequence (Q9UKT9 whole entry) above
IKZF3, sequence (Q96SW2 whole entry): as the sequence (Q96SW2 whole entry) above
IKZF3, sequence (Q16531 whole entry partner): as the sequence (Q16531 whole entry partner) above

[12] = molecular target: T1, IKZF3-nLuc; type: cell-based

BTK, sequence (Q06187 whole entry): as the sequence (Q06187 whole entry, the tested form may be a part) above

Structure (SMILES): O=C1CC[C@H](N2Cc3c(OCc4ccc(CN5CCOCC5)cc4)cccc3C2=O)C(=O)N1 [CC220]
BTK degradation in Mino cells [1]: In contrast to PS-1, PS-3 and CC-220, PS-2 potently induces BTK degradation

IC50 [3]: 329 nM
IKZF1 degradation half-life [5]: 4.9 h
IKZF3 degradation half-life [6]: 1.9 h
Structure (SMILES): Nc1cccc2c1C(=O)N(C1CCC(=O)NC1=O)C2=O (centres unmarked) [Pomalidomide, pomalidomide]
response of Jeko-1 cells [2]: only Mino cells are responsive
response of Rec-R cells [4]: only Mino cells are responsive

IC50 [7]: 2900 nM
IC50 [8]: 1.21 nM
Structure (SMILES): C=CC(=O)Nc1cccc(Oc2nc(Nc3ccc(N4CCN(C)CC4)cc3)nc3ccoc23)c1 [Poseltinib, poseltinib]

BTK WB Dmax ([1]; Mino cells): 99%
BTK degradation in Mino cells [1]: potently induces BTK degradation
BTK-nLuc Dmax [9]: 96%
DC50 ([9]; read-out: BTK-nLuc DC50): 25.9 nM
Structure (SMILES): Cc1c(NC(=O)c2ccc(C(C)(C)C)cc2)cccc1-c1cn(C)c(=O)c(Nc2ccc(C(=O)N3CCN(CCCCCCNC(=O)CNc4cccc5c4C(=O)N(C4CCC(=O)NC4=O)C5=O)CC3)cc2)n1 (centres unmarked) [DD-03-171]

IKZF1 degradation [10]: substantial IKZF1 degradation
IKZF3 degradation [11]: do not degrade IKZF3
Structure (SMILES): Nc1ccc(N2CCN(C(=O)CNc3cccc4c3C(=O)N(C3CCC(=O)NC3=O)C4=O)CC2)cc1 (centres unmarked) [PS-4]

IKZF3 degradation in the nLuc assay [12]: appear to be potent IKZF3 degraders
IKZF1 degradation [10]: less potent
IKZF3 degradation [11]: do not degrade IKZF3
Structure (SMILES): CN1CCN(C(=O)CNc2cccc3c2C(=O)N(C2CCC(=O)NC2=O)C3=O)CC1 (centres unmarked) [PS-5]

Reference: publication PMC9879287 (Current research in chemical biology, 2022)
